Assay [1] concerns S. aureus (USA300), stationary phase. As to the kind of experiment: Time of kill for free antibiotics on non-replicating bacteria. The format is cell-based, Staphylococcus aureus. The settings on record: 1×10^-6M antibiotic, overnight incubation in PBS at 37° C. How it is done:
Time of kill for free antibiotics on non-replicating bacteria: S. aureus (USA300) was taken from an overnight stationary phase culture, washed once in Phosphate Buffered Saline (PBS) and suspended at 1×10^7 CFU/mL in PBS with no antibiotic or with 1×10^-6M antibiotic in a 10 mL volume in 50 mL polypropylene centrifuge tubes. The bacteria were incubated at 37° C. overnight with shaking. At each time point, three 1 mL samples were removed from each culture and centrifuged to collect the bacteria. Bacteria were washed once with PBS to remove the antibiotic and the total number of surviving bacteria was determined by plating serial dilutions of the bacteria on agar plates.
MRSA was collected from a stationary phase culture and suspended in phosphate buffered saline containing no antibiotic or 1×10^-6M of rifampin or the rifamycin-derivative (Rifalog) and incubated at 37° C. At the indicated times, a sample of the culture was collected and centrifuged to remove the antibiotic and the total number of surviving bacteria was determined by plating.

In assay [2] the test system is MRSA (USA300 NRS384 strain). The assay is described as follows: Murine intravenous infection model (CB17.SCID mice reconstituted with IGIV). The format is in vivo, Staphylococcus aureus. The settings on record: single dose 24h post infection; free antibiotic at equal molar concentration. As for the experimental part: S. aureus is a common colonizer of human skin and mucosal surfaces. […] Mouse serum has no appreciable levels of anti-S aureus antibody. To determine whether endogenous anti-WTA antibodies found in normal human serum might compete for binding with the AAC, CB17.SCID mice (Charles River Laboratories, Hollister, Calif.) were reconstituted with GammaGard S/D IGIV Immune Globulin (ASD Healthcare, Brooks Ky.) using a dosing regimen optimized to achieve constant serum levels of at least 10 mg/mL of human IgG in serum. IGIV was administered with an initial intravenous dose of 30 mg per mouse followed by a second dose of 15 mg/mouse by intraperitoneal (i.p.) injection after 6 hours, and subsequent daily dosings of 15 mg per mouse by intraperitoneal injection for 3 consecutive days. These mice were equally susceptible to infection with MRSA compared to untreated controls.
Mice (n=8 for each of antibody or AAC) were infected 4 hours after the first dose of IGIV with 1×10^7 CFU of MRSA (USA300 NRS384 strain) diluted in phosphate buffered saline by intravenous injection. Infected mice were treated with 50 mg/kg of S4497 naked antibody or S4497 AAC from Table 3. […] The total number of bacteria recovered per organ was determined by plating serial dilutions of the tissue homogenate in PBS 0.05% Tween on Tryptic Soy Agar with 5% defibrinated sheep blood.

Assay [3] deals with S. aureus (USA300) persister cells. As to the kind of experiment: Killing of persister cells by free antibiotics. It is filed as cell-based, Staphylococcus aureus. The settings on record: ciprofloxacin-treated cultures, second antibiotic 1 ug/ml. How it is done:
Killing of persisters cells by free antibiotics: S. aureus (USA300) was taken from an overnight stationary phase culture, washed once in Tryptic Soy Broth (TSB) and then adjusted to a final concentration of 1×10^7 CFU/ml in a total volume of 10 mL of either TSB or TSB with ciprofloxicin (0.05 mM). Cultures were incubated with shaking at 37° C. for 6 hours and then the second antibiotic, either rifampicin (1 ug/ml) or another rifamycin-type antibiotic (1 ug/ml) was added. At the indicated times, samples were removed from each culture, washed once with PBS to remove the antibiotic and re-suspended in PBS. The total number of surviving bacteria was determined by plating serial dilutions of the bacteria on agar plates. At the final time point the remainder of each culture was collected and plated.

For the compound `CO[C@H]1/C=C/O[C@@]2(C)Oc3c(C)c(O)c4c(=O)c(c5oc6cc(N7CCC(N(C)C)CC7)cc(O)c6nc-5c4c3C2=O)NC(=O)/C(C)=C\C=C\[C@H](C)[C@H](O)[C@@H](C)[C@@H](O)[C@@H](C)[C@H](OC(C)=O)[C@@H]1C` [dimethylpipBOR, dimethylpiperidyl benzoxazino rifamycin], the “decrease in the number of viable, but non-replicating, bacteria” value in assay [1] is on record as “more than 1,000 fold”. Besides, the “efficacy on bacterial counts in infected organs” value in assay [2] is “not efficacicou”. In addition, in assay [3], the “effect on viability of persister cells” value is “eradication of persister cells below the limit of detection”.

Source of the values: US20180021450A1, “ANTI-STAPHYLOCOCCUS AUREUS ANTIBODY RIFAMYCIN CONJUGATES AND USES THEREOF” (Genentech, Inc., priority 2014, published 2018).
